Measured values published in ChEMBL document CHEMBL3132769, “Fragment growing to retain or alter the selectivity of anchored kinase hinge-binding fragments” (Medchemcomm, 2014).

How the values were obtained:
[1] = biological target: T1, Protein kinase C zeta type (Homo sapiens) (UniProt Q05513); test: Inhibition of human full length PKC zeta expressed in baculovirus assessed as substrate phosphorylation using fluorescence-labelled peptides as substrate at 420 uM after 90 mins by microfluidic peptide phosphorylation assay
T1 sequence (whole entry): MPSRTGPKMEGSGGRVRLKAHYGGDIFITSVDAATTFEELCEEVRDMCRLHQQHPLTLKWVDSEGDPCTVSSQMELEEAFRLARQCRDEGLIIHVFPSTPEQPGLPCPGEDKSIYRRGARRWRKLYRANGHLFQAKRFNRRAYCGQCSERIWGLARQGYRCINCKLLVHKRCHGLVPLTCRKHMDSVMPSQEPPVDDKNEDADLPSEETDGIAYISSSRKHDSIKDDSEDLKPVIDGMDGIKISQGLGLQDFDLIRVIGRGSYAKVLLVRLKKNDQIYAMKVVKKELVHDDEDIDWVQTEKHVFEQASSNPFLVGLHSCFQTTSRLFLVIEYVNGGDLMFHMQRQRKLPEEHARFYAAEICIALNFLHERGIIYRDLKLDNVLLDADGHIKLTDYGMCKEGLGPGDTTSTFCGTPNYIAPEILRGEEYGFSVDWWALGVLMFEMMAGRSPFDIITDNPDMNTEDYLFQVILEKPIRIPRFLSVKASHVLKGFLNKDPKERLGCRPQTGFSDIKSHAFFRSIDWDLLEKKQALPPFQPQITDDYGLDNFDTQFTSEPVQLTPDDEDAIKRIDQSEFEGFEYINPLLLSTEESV

[2] = system: Tyrosine-protein kinase ABL1 (Homo sapiens), P00519 [Q252H]; test: Inhibition of human truncated ABL Q252H mutant expressed in baculovirus assessed as substrate phosphorylation using fluorescence-labelled peptides as substrate at 9 uM after 90 mins by microfluidic peptide phosphorylation assay
[3] = biological target: Fibroblast growth factor receptor 3 (Homo sapiens) (UniProt P22607); test: Inhibition of human FGFR3 catalytic domain expressed in baculovirus assessed as substrate phosphorylation using fluorescence-labelled peptides as substrate at 9 uM after 90 mins by microfluidic peptide phosphorylation assay
[4] = biological target: Fibroblast growth factor receptor 2 (Homo sapiens) (UniProt P21802); test: Inhibition of human FGFR2 catalytic domain expressed in baculovirus assessed as substrate phosphorylation using fluorescence-labelled peptides as substrate at 9 uM after 90 mins by microfluidic peptide phosphorylation assay
[5] = biological target: Mitogen-activated protein kinase kinase kinase kinase 4 (Homo sapiens) (UniProt O95819); test: Inhibition of human HGK catalytic domain expressed in baculovirus assessed as substrate phosphorylation using fluorescence-labelled peptides as substrate at 95 uM after 90 mins by microfluidic peptide phosphorylation assay
[6] = biological target: Serine/threonine-protein kinase MARK1 (Homo sapiens) (UniProt Q9P0L2); test: Inhibition of human full length MARK1 expressed in baculovirus assessed as substrate phosphorylation using fluorescence-labelled peptides as substrate at 8 uM after 90 mins by microfluidic peptide phosphorylation assay
[7] = biological target: Serine/threonine-protein kinase Chk2 (Homo sapiens) (UniProt O96017); test: Inhibition of human full length CHK2 expressed in baculovirus assessed as substrate phosphorylation using fluorescence-labelled peptides as substrate at 8 uM after 90 mins by microfluidic peptide phosphorylation assay
[8] = biological target: T2, Serine/threonine-protein kinase Nek2 (Homo sapiens) (UniProt P51955); test: Inhibition of human full length NEK2 expressed in baculovirus assessed as substrate phosphorylation using fluorescence-labelled peptides as substrate at 70 uM after 90 mins by microfluidic peptide phosphorylation assay
T2 sequence (whole entry): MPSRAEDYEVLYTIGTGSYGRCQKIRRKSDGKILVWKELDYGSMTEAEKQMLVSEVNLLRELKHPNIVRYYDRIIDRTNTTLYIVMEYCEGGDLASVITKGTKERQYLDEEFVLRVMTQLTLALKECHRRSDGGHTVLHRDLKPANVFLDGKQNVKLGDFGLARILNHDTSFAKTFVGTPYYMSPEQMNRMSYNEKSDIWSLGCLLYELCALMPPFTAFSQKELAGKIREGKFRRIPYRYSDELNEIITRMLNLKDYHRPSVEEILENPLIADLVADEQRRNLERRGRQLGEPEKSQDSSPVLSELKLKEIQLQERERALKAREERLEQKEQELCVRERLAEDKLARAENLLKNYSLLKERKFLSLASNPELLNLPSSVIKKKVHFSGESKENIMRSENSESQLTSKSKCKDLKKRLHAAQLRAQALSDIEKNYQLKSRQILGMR

[9] = biological target: T3, Serine/threonine-protein kinase BRSK1 (Homo sapiens) (UniProt Q8TDC3); test: Inhibition of human full length BRSK1 expressed in baculovirus assessed as substrate phosphorylation using fluorescence-labelled peptides as substrate at 70 uM after 90 mins by microfluidic peptide phosphorylation assay
T3 sequence (whole entry): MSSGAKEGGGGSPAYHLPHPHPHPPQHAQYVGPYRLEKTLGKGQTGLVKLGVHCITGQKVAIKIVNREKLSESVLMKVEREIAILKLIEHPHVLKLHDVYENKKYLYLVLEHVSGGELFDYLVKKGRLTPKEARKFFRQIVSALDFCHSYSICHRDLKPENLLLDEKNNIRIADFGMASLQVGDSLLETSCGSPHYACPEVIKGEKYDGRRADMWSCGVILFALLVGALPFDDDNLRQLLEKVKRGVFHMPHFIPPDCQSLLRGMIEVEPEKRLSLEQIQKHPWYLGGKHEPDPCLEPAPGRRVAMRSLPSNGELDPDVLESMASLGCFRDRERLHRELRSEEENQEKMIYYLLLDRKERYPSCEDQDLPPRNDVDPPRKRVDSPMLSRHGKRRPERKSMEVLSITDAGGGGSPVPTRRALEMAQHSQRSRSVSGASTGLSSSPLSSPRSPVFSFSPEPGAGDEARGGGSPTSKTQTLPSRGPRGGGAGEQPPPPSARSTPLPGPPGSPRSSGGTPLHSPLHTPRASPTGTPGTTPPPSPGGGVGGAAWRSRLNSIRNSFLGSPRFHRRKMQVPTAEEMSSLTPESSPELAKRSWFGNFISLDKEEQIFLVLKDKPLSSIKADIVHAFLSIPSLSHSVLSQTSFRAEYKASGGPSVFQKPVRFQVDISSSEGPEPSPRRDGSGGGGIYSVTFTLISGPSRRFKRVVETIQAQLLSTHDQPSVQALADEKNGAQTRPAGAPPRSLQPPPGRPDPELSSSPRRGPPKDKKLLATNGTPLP

[10] = biological target: Tyrosine-protein kinase Fyn (Homo sapiens) (UniProt P06241); test: Inhibition of human full length FYN expressed in baculovirus assessed as substrate phosphorylation using fluorescence-labelled peptides as substrate at 70 uM after 90 mins by microfluidic peptide phosphorylation assay
[11] = biological target: Tyrosine-protein kinase ABL1 (Homo sapiens) (UniProt P00519); test: Inhibition of human full-length ABL expressed in baculovirus assessed as substrate phosphorylation using fluorescence-labelled peptides as substrate at 1000 uM after 90 mins by microfluidic peptide phosphorylation assay

Chain of Fibroblast growth factor receptor 3 (Homo sapiens) (P22607 23-806 limits assumed): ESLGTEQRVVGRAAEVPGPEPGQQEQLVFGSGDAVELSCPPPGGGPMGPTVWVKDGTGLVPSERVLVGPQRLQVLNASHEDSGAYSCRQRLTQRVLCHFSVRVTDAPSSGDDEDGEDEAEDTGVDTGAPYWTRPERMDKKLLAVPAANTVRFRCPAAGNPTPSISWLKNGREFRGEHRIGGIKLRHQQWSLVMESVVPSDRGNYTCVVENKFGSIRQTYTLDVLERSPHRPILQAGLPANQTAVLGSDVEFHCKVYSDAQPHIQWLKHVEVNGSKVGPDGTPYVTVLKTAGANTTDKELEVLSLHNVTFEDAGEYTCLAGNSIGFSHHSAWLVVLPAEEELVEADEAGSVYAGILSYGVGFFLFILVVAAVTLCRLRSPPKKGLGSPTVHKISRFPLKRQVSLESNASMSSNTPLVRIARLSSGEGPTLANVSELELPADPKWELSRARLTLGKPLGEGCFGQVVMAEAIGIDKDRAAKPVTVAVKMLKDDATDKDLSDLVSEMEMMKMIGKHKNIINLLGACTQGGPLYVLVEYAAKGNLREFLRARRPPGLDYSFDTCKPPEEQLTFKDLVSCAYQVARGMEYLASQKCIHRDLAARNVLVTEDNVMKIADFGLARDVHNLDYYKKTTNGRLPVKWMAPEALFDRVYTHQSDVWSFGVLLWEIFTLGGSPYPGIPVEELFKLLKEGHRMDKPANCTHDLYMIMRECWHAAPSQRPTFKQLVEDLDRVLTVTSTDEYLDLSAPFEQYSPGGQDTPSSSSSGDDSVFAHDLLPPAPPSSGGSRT
Chain of Serine/threonine-protein kinase Chk2 (Homo sapiens) (O96017 whole entry): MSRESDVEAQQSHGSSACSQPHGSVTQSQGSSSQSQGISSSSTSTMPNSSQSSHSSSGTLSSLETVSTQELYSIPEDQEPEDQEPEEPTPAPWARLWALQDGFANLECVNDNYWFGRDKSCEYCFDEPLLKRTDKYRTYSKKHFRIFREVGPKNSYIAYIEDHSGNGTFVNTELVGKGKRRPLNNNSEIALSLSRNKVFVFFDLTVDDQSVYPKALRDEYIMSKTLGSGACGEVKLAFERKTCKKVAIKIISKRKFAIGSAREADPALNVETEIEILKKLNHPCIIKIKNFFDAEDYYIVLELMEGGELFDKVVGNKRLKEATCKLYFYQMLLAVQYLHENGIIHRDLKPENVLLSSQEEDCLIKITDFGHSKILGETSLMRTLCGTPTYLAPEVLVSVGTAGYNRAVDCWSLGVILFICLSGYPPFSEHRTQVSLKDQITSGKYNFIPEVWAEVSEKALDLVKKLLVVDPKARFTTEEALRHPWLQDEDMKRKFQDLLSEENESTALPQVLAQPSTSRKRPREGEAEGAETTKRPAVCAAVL
Chain of Mitogen-activated protein kinase kinase kinase kinase 4 (Homo sapiens) (O95819 2-1239 limits assumed): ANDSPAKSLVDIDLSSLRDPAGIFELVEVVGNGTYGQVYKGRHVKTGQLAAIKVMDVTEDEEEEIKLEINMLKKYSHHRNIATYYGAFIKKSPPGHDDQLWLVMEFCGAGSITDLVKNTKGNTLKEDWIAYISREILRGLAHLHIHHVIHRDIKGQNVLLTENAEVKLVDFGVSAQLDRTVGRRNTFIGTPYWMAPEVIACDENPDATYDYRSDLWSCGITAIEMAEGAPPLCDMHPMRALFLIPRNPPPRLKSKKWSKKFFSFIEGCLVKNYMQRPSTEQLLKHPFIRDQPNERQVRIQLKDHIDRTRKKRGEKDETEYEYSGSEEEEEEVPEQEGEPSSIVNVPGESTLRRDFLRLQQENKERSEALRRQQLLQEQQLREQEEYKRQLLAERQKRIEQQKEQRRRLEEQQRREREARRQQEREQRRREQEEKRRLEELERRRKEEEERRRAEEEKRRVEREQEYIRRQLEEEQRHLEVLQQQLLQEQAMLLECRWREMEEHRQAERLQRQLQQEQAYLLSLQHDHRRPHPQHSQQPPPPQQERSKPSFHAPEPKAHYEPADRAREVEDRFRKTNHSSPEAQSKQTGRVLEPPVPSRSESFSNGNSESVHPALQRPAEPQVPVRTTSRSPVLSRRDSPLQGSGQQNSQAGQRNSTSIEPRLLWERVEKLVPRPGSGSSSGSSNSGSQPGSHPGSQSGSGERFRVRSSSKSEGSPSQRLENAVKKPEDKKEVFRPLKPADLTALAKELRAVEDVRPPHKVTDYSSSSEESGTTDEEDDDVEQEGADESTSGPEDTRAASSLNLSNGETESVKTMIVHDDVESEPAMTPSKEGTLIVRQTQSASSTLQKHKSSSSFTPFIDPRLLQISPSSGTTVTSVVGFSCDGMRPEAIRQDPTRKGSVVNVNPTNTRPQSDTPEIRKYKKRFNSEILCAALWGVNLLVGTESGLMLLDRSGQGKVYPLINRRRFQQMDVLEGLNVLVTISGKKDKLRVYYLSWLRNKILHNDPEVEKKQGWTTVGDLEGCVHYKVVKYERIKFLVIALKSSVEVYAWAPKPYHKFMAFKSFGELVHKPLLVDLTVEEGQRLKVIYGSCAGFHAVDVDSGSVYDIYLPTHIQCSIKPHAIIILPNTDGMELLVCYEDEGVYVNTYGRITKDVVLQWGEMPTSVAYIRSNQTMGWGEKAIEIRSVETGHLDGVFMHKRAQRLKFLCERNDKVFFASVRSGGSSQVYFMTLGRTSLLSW
Chain of Serine/threonine-protein kinase MARK1 (Homo sapiens) (Q9P0L2 whole entry, looked up): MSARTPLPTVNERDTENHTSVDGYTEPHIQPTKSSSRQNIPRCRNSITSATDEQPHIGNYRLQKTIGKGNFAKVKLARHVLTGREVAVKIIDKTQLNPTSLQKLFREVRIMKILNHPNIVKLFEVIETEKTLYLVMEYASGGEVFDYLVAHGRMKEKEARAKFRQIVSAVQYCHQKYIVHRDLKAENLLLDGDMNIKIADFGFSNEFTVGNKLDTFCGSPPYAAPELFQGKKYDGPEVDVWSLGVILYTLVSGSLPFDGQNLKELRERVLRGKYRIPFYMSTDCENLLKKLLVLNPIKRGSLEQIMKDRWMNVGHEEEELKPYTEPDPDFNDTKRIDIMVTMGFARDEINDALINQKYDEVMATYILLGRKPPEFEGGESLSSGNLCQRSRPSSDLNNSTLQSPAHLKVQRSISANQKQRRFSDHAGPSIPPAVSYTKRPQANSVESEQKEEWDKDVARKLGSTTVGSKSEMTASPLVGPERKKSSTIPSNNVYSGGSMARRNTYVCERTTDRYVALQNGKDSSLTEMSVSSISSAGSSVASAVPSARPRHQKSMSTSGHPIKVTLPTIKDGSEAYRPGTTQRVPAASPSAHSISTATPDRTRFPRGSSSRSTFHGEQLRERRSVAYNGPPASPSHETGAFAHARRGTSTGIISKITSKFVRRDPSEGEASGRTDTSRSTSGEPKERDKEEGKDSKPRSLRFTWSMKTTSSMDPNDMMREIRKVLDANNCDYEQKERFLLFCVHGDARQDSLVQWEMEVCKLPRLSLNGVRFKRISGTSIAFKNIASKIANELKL
Chain of Fibroblast growth factor receptor 2 (Homo sapiens) (P21802 22-821 limits assumed): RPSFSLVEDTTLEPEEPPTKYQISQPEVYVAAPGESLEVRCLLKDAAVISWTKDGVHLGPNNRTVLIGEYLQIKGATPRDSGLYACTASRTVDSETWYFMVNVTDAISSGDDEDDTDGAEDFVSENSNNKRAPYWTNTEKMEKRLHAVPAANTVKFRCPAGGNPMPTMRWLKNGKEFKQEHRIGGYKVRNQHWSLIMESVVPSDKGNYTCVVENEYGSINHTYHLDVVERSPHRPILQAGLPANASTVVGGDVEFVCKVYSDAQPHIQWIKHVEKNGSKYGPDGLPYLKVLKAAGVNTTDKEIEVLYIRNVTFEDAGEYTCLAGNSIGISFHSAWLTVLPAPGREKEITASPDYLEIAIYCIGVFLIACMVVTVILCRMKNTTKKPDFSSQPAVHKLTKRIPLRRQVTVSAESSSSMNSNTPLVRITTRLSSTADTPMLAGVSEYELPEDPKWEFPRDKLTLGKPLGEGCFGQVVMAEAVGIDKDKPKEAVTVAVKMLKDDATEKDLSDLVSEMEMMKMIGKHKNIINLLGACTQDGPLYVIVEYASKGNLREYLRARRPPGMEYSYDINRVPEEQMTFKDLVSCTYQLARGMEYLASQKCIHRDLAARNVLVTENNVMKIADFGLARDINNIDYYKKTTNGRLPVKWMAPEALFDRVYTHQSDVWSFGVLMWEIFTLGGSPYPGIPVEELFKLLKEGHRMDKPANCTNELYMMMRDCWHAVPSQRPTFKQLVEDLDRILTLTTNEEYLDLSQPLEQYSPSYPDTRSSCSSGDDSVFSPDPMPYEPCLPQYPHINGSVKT
Chain of Tyrosine-protein kinase Fyn (Homo sapiens) (P06241 2-537 limits assumed): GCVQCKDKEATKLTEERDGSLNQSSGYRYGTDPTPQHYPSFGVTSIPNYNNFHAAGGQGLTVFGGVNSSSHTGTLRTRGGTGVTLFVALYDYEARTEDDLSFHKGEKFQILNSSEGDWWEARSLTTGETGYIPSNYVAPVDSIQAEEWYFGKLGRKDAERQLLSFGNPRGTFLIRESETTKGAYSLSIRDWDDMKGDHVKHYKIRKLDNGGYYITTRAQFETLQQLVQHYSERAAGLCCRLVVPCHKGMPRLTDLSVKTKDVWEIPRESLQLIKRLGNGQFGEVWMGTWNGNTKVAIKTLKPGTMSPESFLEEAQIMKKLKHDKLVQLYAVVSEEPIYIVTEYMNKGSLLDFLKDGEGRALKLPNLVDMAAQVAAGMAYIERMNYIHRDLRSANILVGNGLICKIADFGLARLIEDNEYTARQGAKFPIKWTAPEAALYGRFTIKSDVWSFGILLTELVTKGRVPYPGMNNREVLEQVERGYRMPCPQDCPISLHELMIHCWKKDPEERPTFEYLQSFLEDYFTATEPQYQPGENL

c1nc(N2CCOCC2)c2nc[nH]c2n1
inhibition [1]: 46%

NCC1CN(c2ncnc3[nH]c4cnccc4c23)CCO1 (stereo unspecified)
inhibition [2]: 6% | inhibition [3]: 43.5% | inhibition [4]: 30%

NCCc1ccc(-c2ncnc3[nH]cnc23)cc1
inhibition [5]: 39.5%

NCC1CCN(c2ncnc3[nH]ccc23)CC1
inhibition [6]: 74% | inhibition [7]: 0%

CNCc1ccc(-c2ncnc3[nH]cnc23)cc1
inhibition [8]: 15.5% | inhibition [9]: 29.5% | inhibition [10]: 31.5%

c1cnc2[nH]ccc2c1
inhibition [11]: 42%
